The values below come from publication PMC12458359 (bioRxiv, 2025).

What is called IC50 is the concentration at which inhibition is half-maximal.

Holding throughout (assay): radiometric enzymatic assay
Common to all, as to type: biochemical

In test [1] the target is T1, CK1γ1 (Homo sapiens, UniProt Q9HCP0). The following applies: read-out: Enzymatic IC50 CK1γ1.
For test [2], the target named is T2, CK1γ2 (Homo sapiens, UniProt P78368). The following applies: read-out: Enzymatic IC50 CK1γ2.
Test [3] concerns the target T2, CK1γ2. The following applies: read-out: Enzymatic IC50 CK1γ2. The source holds these as a separate data set.
Test [4] has as its target T1, CK1γ1. Conditions: read-out: NB IC50 CK1γ3.
Test [5] addresses T1, CK1γ1. Conditions: read-out: Enzymatic IC50 CK1γ1. The source holds these as a separate data set.
The target of test [6] is T2, CK1γ2. Conditions: read-out: Enzymatic IC50 CK1γ2. This is another data set of the same source.
In test [7] the target is T1, CK1γ1. The following applies: read-out: Enzymatic IC50 CK1γ1. This is another data set of the same source.
Test [8] has as its target T2, CK1γ2. Conditions: read-out: Enzymatic IC50 CK1γ2. The source holds these as a separate data set.

Structures are written as SMILES. Where two headings read alike, the source gives them in different places.

T2 sequence (P78368 whole entry): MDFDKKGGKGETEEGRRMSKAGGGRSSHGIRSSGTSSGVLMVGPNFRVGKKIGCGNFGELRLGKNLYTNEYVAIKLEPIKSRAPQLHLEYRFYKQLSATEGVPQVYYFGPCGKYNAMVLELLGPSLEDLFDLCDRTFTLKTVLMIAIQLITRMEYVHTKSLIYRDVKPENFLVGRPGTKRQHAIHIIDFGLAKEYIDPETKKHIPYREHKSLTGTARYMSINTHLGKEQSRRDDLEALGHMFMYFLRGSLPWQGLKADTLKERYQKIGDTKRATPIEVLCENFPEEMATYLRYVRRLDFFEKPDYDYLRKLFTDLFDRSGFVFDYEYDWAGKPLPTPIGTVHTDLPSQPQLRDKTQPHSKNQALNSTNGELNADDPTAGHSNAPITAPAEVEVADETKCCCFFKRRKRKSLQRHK
T1 sequence (Q9HCP0 whole entry): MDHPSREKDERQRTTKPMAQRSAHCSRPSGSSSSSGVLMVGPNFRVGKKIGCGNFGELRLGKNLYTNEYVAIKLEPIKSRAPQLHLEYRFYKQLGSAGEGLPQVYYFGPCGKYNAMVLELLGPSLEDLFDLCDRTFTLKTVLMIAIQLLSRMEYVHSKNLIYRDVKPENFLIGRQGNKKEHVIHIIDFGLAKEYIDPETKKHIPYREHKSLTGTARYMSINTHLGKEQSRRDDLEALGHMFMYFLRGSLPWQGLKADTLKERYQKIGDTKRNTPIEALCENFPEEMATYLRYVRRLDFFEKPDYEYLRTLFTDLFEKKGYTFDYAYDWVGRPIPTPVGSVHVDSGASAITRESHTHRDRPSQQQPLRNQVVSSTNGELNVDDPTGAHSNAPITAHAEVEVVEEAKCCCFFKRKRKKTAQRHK

Regarding `N#Cc1ccc2nc(Nc3ccc(N4CCOCC4)c(Cl)c3)[nH]c2c1` [compound 14, 2-((3-chloro-4-morpholinophenyl)amino)-1H-benzo[d]imidazole-6-carbonitrile], the IC50 in test [1] was 28 nM; in test [2] it was 7 nM.
For the molecule `N#Cc1ccc2[nH]c(Nc3ccc(N4CCCCC4)c(Cl)c3)nc2c1` [compound 20, 2-((3-chloro-4-(piperidin-1-yl)phenyl)amino)-1H-benzo[d]imidazole-5-carbonitrile], the IC50 in test [3] stood at 9 nM; in test [4], 30 nM.
For `CN1CCN(c2ccc(Nc3nc4ccc(C#N)cc4[nH]3)cc2Cl)CC1` [compound 21, 2-((3-chloro-4-(4-methylpiperazin-1-yl)phenyl)amino)-1H-benzo[d]imidazole-6-carbonitrile], the IC50 in test [5] is 36 nM; in test [6], 14 nM.
As for `N#Cc1ccc2nc(Nc3ccc(N4CCOCC4)c(Br)c3)[nH]c2c1` [compound 15, 2-((3-bromo-4-morpholinophenyl)amino)-1H-benzo[d]imidazole-6-carbonitrile], the values for the IC50 in test [7] and in test [8] were 40 nM and 10 nM, respectively.
